Laboratory results taken from patent US20080064714A1, “Novel Pyrrolodihydroisoquinolines” (NYCOMED GMBH, priority 2005, published 2008).

Experiments:
[1] = test system: NCl-H460 non-small cell lung cancer cells; experiment: Alamar Blue cell viability assay (anti-proliferative/cytotoxic activity); format: cell-based; details: Homo sapiens, NCI-H460 cells, 72 hours incubation, read-out: −log IC50 NCI-H460 (mol/l), anti-proliferative/cytotoxic activity (converted)
Protocol: The anti-proliferative/cytotoxic activity of the compounds described herein, can be tested on NCl-H460 non-small cell lung cancer cells using the Alamar Blue cell viability assay (described in O'Brien et al. Eur J Biochem 267, 5421-5426, 2000). The compounds are dissolved as 20 mM solutions in dimethylsulfoxide (DMSO) and subsequently diluted in semi-logarithmic steps. DMSO dilutions are further diluted 1:10 into Dulbecco's modified Eagle's medium (DMEM) containing 10% fetal calf serum to a final concentration ten times as much as the final concentration in the test. NCl-H460 cells are seeded into 96 well flat bottom plates at a density of 4000 cells per well in a volume of 180 μl per well. 24 hours after seeding the 20 μl each of the compound dilutions in DMEM medium are added into each well of the 96 Well plate. Each compound dilution is tested as quadruplicates. Wells containing untreated control cells are filled with […] DMEM medium containing 1% DMSO. The cells are then incubated with the substances for 72 hours at 37° C. in a humified atmosphere containing 5% carbon dioxide. To determine the viability of the cells, 20 μl of an Alamar Blue solution (Biosource) are added and the fluorescence is measured at an extinction of 544 nm and an emission of 590 nm. For the calculation of cell viability the emission value from untreated cells is set to 100% viability and the emission rates of treated cells are set in relation to the values of untreated cells. Viabilities are expressed as % values.
The corresponding IC50 values of the compounds for anti-proliferative/cytotoxic activity are determined from the concentration-effect curves.
Representative IC50 values for anti-proliferation/cytotoxicity determined in the aforementioned assay follow from the following table A, in which the numbers of the compound correspond to the numbers of the examples.

[2] = test system: NCl-H460 non-small cell lung cancer cells; experiment: modified Alamar Blue cell viability assay for compound combinations; format: cell-based; details: in combination with the compounds according to this invention; concentration-effect curves, single compound vs. combination
Protocol: In order to assess favorable compound combinations in vitro which might be used for therapeutic applications, a modified Alamar Blue cell viability assay (described in O'Brien et al. Eur J Biochem 267, 5421-5426, 2000) is applied. For that purpose, anti-proliferative/cytotoxic effects of the compounds described herein in combination with other pharmacologically active compounds are assayed on NCl-H460 non-small cell lung cancer cells. The respective compounds are dissolved as 20 mM solutions in dimethylsulfoxide (DMSO) and subsequenty diluted in semi-logarithmic steps. […] To determine the viability of the cells, 20 μl of an Alamar Blue solution (Biosource) are added and the fluorescence is measured at an extinction of 544 nm and an emission of 590 nm. For the calculation of cell viability the fluorescence emission value from untreated cells is set to 100% viability and the emission values of treated cells are set in relation to the values of untreated cells. Viabilities are expressed as % values. […]
Synergistic or antagonistic effects of compound combinations can be determined from the concentration-effect curves by comparison of curve shapes and IC50 values for single compound treatment vs. the compound combination.

Row | melting point [°C] | Compound | IC50 [1] [nM] | synergistic effects with the compounds according to this invention [2]
1 |  | CCC(=O)c1c(-c2cc(C)c(O)c(C)c2)c(C)n2c1-c1cc(OC)c(OC)cc1CC2 [Example 1, 1-[2-(4-Hydroxy-3,5-dimethyl-phenyl)-8,9-dimethoxy-3-methyl-5,6-dihydro-pyrrolo[2,1-a]isoquinolin-1-yl]-propan-1-one] | 158 to 1580 | 
2 | 129 to 132 | CCC(=O)c1c(-c2ccc(OC)c(OC)c2F)c(C)n2c1-c1cc(OC)c(OC)cc1CC2 [Example 2, 1-[2-(2-Fluoro-3,4-dimethoxy-phenyl)-8,9-dimethoxy-3-methyl-5,6-dihydro-pyrrolo[2,1-a]isoquinolin-1-yl]-propan-1-one] |  | 
3 | 181 to 183 | CCC(=O)c1c(-c2csc3ccccc23)c(C)n2c1-c1cc(OC)c(OC)cc1CC2 [Example 3, 1-(2-Benzo[b]thiophen-3-yl-8,9-dimethoxy-3-methyl-5,6-dihydro-pyrrolo[2,1-a]isoquinolin-1-yl)-propan-1-one] | 158 to 1580 | 
4 | 238 to 240 | CCC(=O)c1c(-c2c[nH]c3ccccc23)c(C)n2c1-c1cc(OC)c(OC)cc1CC2 [Example 4, 1-[2-(1H-Indol-3-yl)-8,9-dimethoxy-3-methyl-5,6-dihydro-pyrrolo[2,1-a]isoquinolin-1-yl]-propan-1-one] | 158 to 1580 | 
5 | 209 to 211 | CCC(=O)c1c(-c2ccc(-c3ccccc3)cc2)c(C)n2c1-c1cc(OC)c(OC)cc1CC2 [Example 5, 1-(2-Biphenyl-4-yl-8,9-dimethoxy-3-methyl-5,6-dihydro-pyrrolo[2,1-a]isoquinolin-1-yl)-propan-1-one] | 158 to 1580 | 
6 |  | COc1cc2c(cc1OC)-c1c(C(=O)C3CC3)c(-c3cc(C)c(O)c(C)c3)c(C)n1CC2 [Example 6, 1-Cyclopropyl-1-[2-(4-hydroxy-3,5-dimethyl-phenyl)-8,9-dimethoxy-3-methyl-5,6-dihydro-pyrrolo[2,1-a]isoquinolin-1-yl]-methanone] | 158 to 1580 | 
7 |  | Nc1ncnc2c1nc(Sc1ccc(Cl)cc1)n2[C@@H]1O[C@@H]2COP(O)(=S)O[C@H]2[C@H]1O (stereo partly shown) [RP-8-CPT-cAMPs] |  | highly synergistic
